Reference: ChEMBL document CHEMBL3632565, “The use of porcupine inhibitors to target Wnt-driven cancers” (Bioorg Med Chem Lett, 2015)
pIC50: −log10 of the molar value. Blank lines part the entries; values can stand above or below the compound they belong to.

Assays:
[1] = target: T1, Protein-serine O-palmitoleoyltransferase porcupine (Homo sapiens) (UniProt Q9H237); test: (§1) Inhibition of porcupine in human HEK293 cells assessed as reduction in Wnt secretion by measuring suppression of beta-catenin reporter activity after 24 hrs by STF reporter assay; assay type: cell-based
T1 sequence (whole entry): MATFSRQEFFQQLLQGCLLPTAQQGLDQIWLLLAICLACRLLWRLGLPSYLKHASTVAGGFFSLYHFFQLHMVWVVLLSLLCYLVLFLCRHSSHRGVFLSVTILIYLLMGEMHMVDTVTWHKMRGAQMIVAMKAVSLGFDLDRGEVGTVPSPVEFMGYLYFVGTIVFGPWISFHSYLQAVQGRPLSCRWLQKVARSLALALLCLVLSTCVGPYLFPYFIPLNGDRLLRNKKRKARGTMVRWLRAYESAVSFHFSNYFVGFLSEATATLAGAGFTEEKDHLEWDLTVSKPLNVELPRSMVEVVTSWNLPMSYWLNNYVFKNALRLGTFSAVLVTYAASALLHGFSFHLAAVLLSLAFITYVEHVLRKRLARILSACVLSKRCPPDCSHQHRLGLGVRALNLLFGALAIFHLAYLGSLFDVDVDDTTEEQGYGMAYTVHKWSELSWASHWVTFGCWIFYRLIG

[2] = target: T2, Protein-serine O-palmitoleoyltransferase porcupine (Homo sapiens, UniProt Q9H237); test: Inhibition of porcupine in human HEK293 cells by STF reporter assay; assay type: cell-based
T2 sequence (Q9H237 whole entry): T1 sequence (whole entry)

[3] = target: T2, Protein-serine O-palmitoleoyltransferase porcupine; test: Inhibition of porcupine activity (unknown origin) expressed in human HT1080 cells assessed as suppression of Wnt3A-mediated super top flash activity by STF luciferase assay; assay type: cell-based, HT-1080
[4] = target: T1, Protein-serine O-palmitoleoyltransferase porcupine (Homo sapiens); test: Binding affinity to porcupine (unknown origin)
HPAF-II = test: (§2) Antitumor activity against human HPAF2 cells xenografted in Balb/c mouse assessed as tumor growth inhibition at 100 mg/kg; assay type: functional
[5] = as §2; assay type: functional; settings: HPAF-II, read-out: TGI
[6] = target: T3, Protein-serine O-palmitoleoyltransferase porcupine (Mus musculus, UniProt Q9JJJ7); test: Inhibition of mouse porcupine expressed in human HT1080 cells assessed as reduction in beta catenin reporter activity using firefly luciferase substrate STF reporter assay; assay type: cell-based, HT-1080
T3 sequence (Q9JJJ7 whole entry): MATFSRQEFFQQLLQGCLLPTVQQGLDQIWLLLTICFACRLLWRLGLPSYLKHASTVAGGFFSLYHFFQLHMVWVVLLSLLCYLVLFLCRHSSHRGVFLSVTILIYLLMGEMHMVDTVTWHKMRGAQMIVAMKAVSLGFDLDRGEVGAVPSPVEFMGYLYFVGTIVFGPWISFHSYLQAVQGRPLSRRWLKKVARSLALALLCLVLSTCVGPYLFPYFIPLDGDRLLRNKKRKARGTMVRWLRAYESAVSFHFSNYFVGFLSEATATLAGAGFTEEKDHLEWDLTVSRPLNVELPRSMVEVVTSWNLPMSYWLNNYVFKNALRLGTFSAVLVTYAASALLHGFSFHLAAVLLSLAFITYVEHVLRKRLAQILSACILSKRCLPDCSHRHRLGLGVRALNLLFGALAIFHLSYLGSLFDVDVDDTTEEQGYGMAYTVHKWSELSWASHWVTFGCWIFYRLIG

[7] = Inhibition of xenopus porcupine expressed in human HT1080 cells assessed as reduction in beta catenin reporter activity using firefly luciferase substrate STF reporter assay; assay type: cell-based; settings: ht-1080
[8] = target: T2, Protein-serine O-palmitoleoyltransferase porcupine; test: as §1; assay type: cell-based

- Activity [4]: > 25 µM
Compound: COc1ccc2nc(NC(=O)CNC(=O)c3ccc(=O)n(-c4ccccc4)c3)sc2c1

- pIC50 [3]: 7.22
Compound: COc1ccc(-n2nc(C(=O)NCC(=O)Nc3nc4ccc(OC)cc4s3)c3ccccc3c2=O)cc1

- Activity [4]: > 25 µM
Compound: O=C(CNC(=O)c1nn(-c2ccccc2)c(=O)c2ccccc12)Nc1nccs1

Continued, compound first:

Compound: C[C@@H](C(=O)Nc1ccc(-c2ccsc2)cc1)n1cnc2c1c(=O)n(C)c(=O)n2C
- inhibition [1]: Dose-dependent effect

Compound: Cn1c(=O)c2c(nc3n2[C@H](CC(=O)Nc2ccc(-c4ccccc4)nn2)CC3)n(C)c1=O
- pIC50 [2]: 8.30

Compound: Cc1cc(-c2ccc(CC(=O)Nc3ccc(-c4cccnc4)cc3)cc2)ccn1
- pIC50 [3]: 10.13

Compound: Cn1c(=O)c2c(ncn2CC(=O)Nc2ccc(-c3ccccc3)nn2)n(C)c1=O [ETC-159]
- TGI (HPAF-II): Dose-dependent effect
- inhibition in vivo at 100 mg/kg [5]: 90%
- inhibition [1]: Dose-dependent effect
- pIC50 [6]: 7.74
- pIC50 [7]: 7.15

Compound: C[C@H](C(=O)Nc1ccc(-c2ccsc2)cc1)n1cnc2c1c(=O)n(C)c(=O)n2C
- pIC50 [8]: 5.27
